Measured values from patent US8697683B2, “Azetidinyl diamides as monoacylglycerol lipase inhibitors” (Janssen Pharmaceutica, NV, priority 2009, dated 2014).

Tests used:
[1] = test system: CCI-induced cold hypersensitivity; test: Chronic Constriction Injury (CCI)-Induced Model of Neuropathic Pain-Cold Acetone-Hypersensitivity Test; format: in vivo; conditions: Sprague-Dawley rats, 30 mg/kg p.o., HPβCD vehicle, last time point 4 h
Description: Fourteen to 35 days following CCI surgery, subjects were placed in elevated observation chambers containing wire mesh floors, and five applications of acetone (0.05 mL/application separated by about 5 min) were spritzed onto the plantar surface of the paw using a multidose syringe. An abrupt withdrawal or lifting of the paw was considered a positive response. The number of positive responses was recorded for each rat over the five trials. Following baseline withdrawal determinations, compounds were administered in the indicated vehicle, by the indicated route (see Table 6). The number of withdrawals was re-determined 1 to 4 h after compound administration.

tactile allodynia = test: Spinal Nerve Ligation (SNL) Model of Neuropathic Pain-Tactile Allodynia Test; format: in vivo, rat; conditions: L5 SNL rats, 30 mg/kg p.o., HPβCD vehicle, last time point 4 h
Description: For lumbar 5 (L5) spinal nerve ligation (SNL) studies, anesthesia was induced and maintained on isoflurane inhalation. Fur was clipped over the dorsal pelvic area, and a 2-cm skin incision was made just left of midline over the dorsal aspect of the L4-S2 spinal segments, followed by separation of the paraspinal muscles from spinous processes. The transverse process of L6 was then carefully removed, and the L5 spinal nerve was identified. The left L5 spinal nerve was then ligated tightly with 6-0 silk thread, the muscle was sutured with 4-0 vicryl, and the skin was closed with wound clips. Following surgery, s.c. saline (5 mL) was administered. Behavioral testing was performed four weeks post-ligation. Following baseline von Frey determinations to verify the presence of mechanical allodynia, L5 SNL rats were orally administered the indicated vehicle or drug. […] which the paw ipsilateral to the nerve ligation was withdrawn from the application of a series of calibrated von Frey filaments (0.4, 0.6, 1.0, 2.0, 4, 6, 8 and 15 g; Stoelting; Wood Dale, Ill.). Beginning at an intermediate stiffness (2.0 g), filaments were applied to the mid-plantar hind paw for approximately 5 seconds. to determine the response threshold, a brisk paw withdrawal led to the presentation of the next lighter stimulus, whereas a lack of a withdrawal response led to the presentation of the next stronger stimulus. A total of four responses after the first threshold detection were collected. The 50% withdrawal thresholds were interpolated by the method of Dixon, Efficient analysis of experimental observations. Annu. Rev. Pharmacol. […] Neurosci. […] Threshold data from von Frey filament testing were reported as withdrawal threshold in grams. Data were normalized and results are presented as % MPE (maximum possible effect) of the drug calculated according to the following formula: [formula]

[2] = test system: CFA induced paw pressure hypersensitivity; test: CFA-Induced Paw Pressure Hypersensitivity; format: in vivo; conditions: rat, dose 30, s.c., HPβCD vehicle, time 1 h
Description: Prior to testing, rats were acclimated to the handling procedure twice a day for a period of two days. […] The endpoint was automatically reached upon hindpaw withdrawal, and the terminal force was noted (in grams). An initial (baseline) response threshold to the mechanical stimulus was recorded for each animal prior to the injection of complete Freund's adjuvant (CFA). Forty hr following intraplantar CFA injection, the response threshold of the animal to the mechanical stimulus was re-evaluated and compared to the animal's baseline response threshold. A response was defined as a withdrawal of the hindpaw, a struggling to remove the hindpaw or vocalization. […] Immediately following the post-CFA threshold assessment, rats were administered the indicated test compound or vehicle. Post-treatment withdrawal thresholds were assessed at 1 h. Paw withdrawal thresholds were converted to percent reversal of hypersensitivity according to the following formula: % reversal=[(post treatment response−predose response)/(baseline response−predose response)]×100.

[3] = murine model of acute inflammation; cited from earlier work

For `O=C(c1ccccc1)N1CCN(C2CN(C(=O)c3ccc(-c4ccccc4)cc3)C2)CC1` [Cpd 5, 1-[1-(Biphenyl-4-ylcarbonyl)azetidin-3-yl]-4-(phenylcarbonyl)piperazine], the peak percent inhibition [1] was 26.7%.
With `O=C(c1cscn1)N1CCN(C2CN(C(=O)c3sc4cc(C(F)(F)F)ccc4c3Cl)C2)CC1` [Cpd 335, 1-(1-{[3-Chloro-6-(trifluoromethyl)-1-benzothiophen-2-yl]carbonyl}azetidin-3-yl)-4-(1,3-thiazol-4-ylcarbonyl)piperazine] the “peak % MPE” value (tactile allodynia) was 50.1%.
With `O=C(c1ccc2c(ccn2-c2ccc(F)cc2)c1)N1CC(N2CCN(C(=O)c3nccs3)CC2)C1` [Cpd 487, 1-(4-Fluorophenyl)-5-({3-[4-(1,3-thiazol-2-ylcarbonyl)piperazin-1-yl]azetidin-1-yl}carbonyl)-1H-indole] the peak percent inhibition [1] was 100%, the percent reversal [2] was 61.8% and the “peak % MPE” value (tactile allodynia) was 61.2%.
With `O=C(c1ccc2c(ccn2-c2ccc(F)c(F)c2)c1)N1CC(N2CCN(C(=O)c3nccs3)CC2)C1` [Cpd 1362, 1-(3,4-Difluorophenyl)-5-({3-[4-(1,3-thiazol-2-ylcarbonyl)piperazin-1-yl]azetidin-1-yl}carbonyl)-1H-indole] the percent reversal [2] was 56.7% and the “peak % MPE” value (tactile allodynia) was 84.3%.
In the case of `O=C(Nc1cccc(-c2ccccc2)c1)OC1CCCCC1` [URB602], the antinociceptive effect [3] is given as “showed an antinociceptive effect”.
